From ChEMBL document CHEMBL3044789, “Comparing weed and crop seedling response to pre-emergence pendimethalin application in Corchorus olitorius and Abelmoschus esculentus” (Crop Prot, 2006)

Tests used:
Chromolaena odorata [1] = assay: Herbicidal activity against Chromolaena odorata in Corchorus olitorius plots assessed as major weed growth at 0.33 kg a.i/ha after 2 weeks; assay type: functional
Corchorus olitorius [2] = assay: Phytotoxicity in Corchorus olitorius assessed as crop seedling injury at 0.66 kg a.i/ha after 2 weeks relative to untreated control; assay type: organism-based; conditions: in vivo, 336 h
Synedrella nodiflora [3] = assay: Herbicidal activity against Synedrella nodiflora in Abelmoschus esculentus plots assessed as minor weed growth at 1.32 kg a.i/ha after 2 weeks; assay type: functional
Euphorbia heterophylla [4] = assay: Herbicidal activity against Euphorbia heterophylla in Abelmoschus esculentus plots assessed as weed cover at 0.99 kg a.i/ha after 4 weeks (reference value: 22.6 +/- 0.49 %); assay type: functional
Cyperus rotundus [5] = assay: Herbicidal activity against Cyperus rotundus in Abelmoschus esculentus plots assessed as weed cover at 0.66 kg a.i/ha after 7 weeks (reference value: 14.7 +/- 0.46 %); assay type: functional
Corchorus olitorius [6] = assay: Phytotoxicity in Corchorus olitorius assessed as seedling injury at 0.66 kg a.i/ha applied as solution after 7 weeks relative to control; assay type: organism-based; conditions: in vivo, other, 1176 h
Calopogonium mucunoides [7] = assay: Herbicidal activity against Calopogonium mucunoides in Corchorus olitorius plots assessed as major weed growth at 1.32 kg a.i/ha after 2 weeks; assay type: functional
Euphorbia heterophylla [8] = assay: Herbicidal activity against Euphorbia heterophylla in Abelmoschus esculentus plots assessed as weed cover at 0.66 kg a.i/ha after 7 weeks (reference value: 14.7 +/- 0.46 %); assay type: functional
Synedrella nodiflora [9] = assay: Herbicidal activity against Synedrella nodiflora in Corchorus olitorius plots assessed as weed cover at 0.99 kg a.i/ha after 7 weeks (reference value: 1.7 +/- 0.56 %); assay type: functional
Euphorbia heterophylla [10] = assay: Herbicidal activity against Euphorbia heterophylla in Corchorus olitorius plots assessed as weed recovery at 1.32 kg a.i/ha after 2 weeks (reference value: 78.3 +/- 0.74 %); assay type: functional
Corchorus olitorius [11] = assay: Phytotoxicity in Corchorus olitorius assessed as crop seedling injury at 1.32 kg a.i/ha after 2 weeks relative to untreated control; assay type: organism-based; conditions: in vivo, 336 h
Corchorus olitorius [12] = assay: Phytotoxicity in Corchorus olitorius assessed as seedling injury at 0.99 kg a.i/ha applied as solution after 7 weeks relative to control; assay type: organism-based; conditions: in vivo, other, 1176 h
Calopogonium mucunoides [13] = assay: Herbicidal activity against Calopogonium mucunoides in Abelmoschus esculentus plots assessed as minor weed growth at 0.66 kg a.i/ha after 2 weeks; assay type: functional
Cyperus rotundus [14] = assay: Herbicidal activity against Cyperus rotundus in Abelmoschus esculentus plots assessed as weed cover at 0.66 kg a.i/ha after 2 weeks (reference value: 63.5 +/- 0.29 %); assay type: functional
Chromolaena odorata [15] = assay: Herbicidal activity against Chromolaena odorata in Corchorus olitorius plots assessed as weed cover at 0.33 kg a.i/ha after 7 weeks (reference value: 1.7 +/- 0.56 %); assay type: functional
Calopogonium mucunoides [16] = assay: Herbicidal activity against Calopogonium mucunoides in Corchorus olitorius plots assessed as weed cover at 0.33 kg a.i/ha after 7 weeks (reference value: 1.7 +/- 0.56 %); assay type: functional
Calopogonium mucunoides [17] = assay: Herbicidal activity against Calopogonium mucunoides in Corchorus olitorius plots assessed as major weed growth at 0.99 kg a.i/ha after 2 weeks; assay type: functional
Chromolaena odorata [18] = assay: Herbicidal activity against Chromolaena odorata in Corchorus olitorius plots assessed as weed cover at 0.33 kg a.i/ha after 2 weeks (reference value: 81.7 +/- 0.43 %); assay type: functional
Synedrella nodiflora [19] = assay: Herbicidal activity against Synedrella nodiflora in Abelmoschus esculentus plots assessed as major weed growth at 0.33 kg a.i/ha after 2 weeks; assay type: functional
Euphorbia heterophylla [20] = assay: Herbicidal activity against Euphorbia heterophylla in Abelmoschus esculentus plots assessed as weed cover at 0.33 kg a.i/ha after 2 weeks (reference value: 63.5 +/- 0.29 %); assay type: functional
Corchorus olitorius [21] = assay: Phytotoxicity in Corchorus olitorius assessed as seedling injury at 1.32 kg a.i/ha applied as solution after 7 weeks relative to control; assay type: organism-based; conditions: in vivo, other, 1176 h
Calopogonium mucunoides [22] = assay: Herbicidal activity against Calopogonium mucunoides in Corchorus olitorius plots assessed as weed recovery at 0.33 kg a.i/ha after 2 weeks (reference value: 78.3 +/- 0.74 %); assay type: functional
Abelmoschus esculentus [23] = assay: Phytotoxicity in Abelmoschus esculentus assessed as root length at 0.99 kg a.i/ha treated to soil after 7 weeks (reference value: 2.9 +/- 0.45 mm); assay type: organism-based; conditions: in vivo, other, 1176 h
Chromolaena odorata [24] = assay: Herbicidal activity against Chromolaena odorata in Corchorus olitorius plots assessed as minor weed growth at 0.99 kg a.i/ha after 2 weeks; assay type: functional
Calopogonium mucunoides [25] = assay: Herbicidal activity against Calopogonium mucunoides in Abelmoschus esculentus plots assessed as weed cover at 0.33 kg a.i/ha after 4 weeks (reference value: 22.6 +/- 0.49 %); assay type: functional
Commelina diffusa = assay: Herbicidal activity against Commelina diffusa in Abelmoschus esculentus plots assessed as weed cover at 0.66 kg a.i/ha after 7 weeks (reference value: 14.7 +/- 0.46 %); assay type: functional
Ageratum conyzoides [26] = assay: Herbicidal activity against Ageratum conyzoides in Abelmoschus esculentus plots assessed as weed recovery at 0.33 kg a.i/ha after 2 weeks (reference value: 60.1 +/- 0.46 %); assay type: functional
Calopogonium mucunoides [27] = assay: Herbicidal activity against Calopogonium mucunoides in Corchorus olitorius plots assessed as weed cover at 0.66 kg a.i/ha after 2 weeks (reference value: 81.7 +/- 0.43 %); assay type: functional
Calopogonium mucunoides [28] = assay: Herbicidal activity against Calopogonium mucunoides in Corchorus olitorius plots assessed as major weed growth at 0.33 kg a.i/ha after 2 weeks; assay type: functional
Ageratum conyzoides [29] = assay: Herbicidal activity against Ageratum conyzoides in Corchorus olitorius plots assessed as weed cover at 1.32 kg a.i/ha after 2 weeks (reference value: 81.7 +/- 0.43 %); assay type: functional
Corchorus olitorius [30] = assay: Phytotoxicity in Corchorus olitorius assessed as root length at 0.99 kg a.i/ha treated to soil after 7 weeks (reference value: 16.9 +/- 0.09 mm); assay type: organism-based; conditions: in vivo, other, 1176 h
Synedrella nodiflora [31] = assay: Herbicidal activity against Synedrella nodiflora in Abelmoschus esculentus plots assessed as weed cover at 0.66 kg a.i/ha after 4 weeks (reference value: 22.6 +/- 0.49 %); assay type: functional
Abelmoschus esculentus [32] = assay: Phytotoxicity in Abelmoschus esculentus assessed as seedling injury at 0.99 kg a.i/ha applied as solution after 7 weeks relative to control; assay type: organism-based; conditions: in vivo, other, 1176 h
Ageratum conyzoides [33] = assay: Herbicidal activity against Ageratum conyzoides in Corchorus olitorius plots assessed as minor weed growth at 1.32 kg a.i/ha after 2 weeks; assay type: functional
Calopogonium mucunoides [34] = assay: Herbicidal activity against Calopogonium mucunoides in Abelmoschus esculentus plots assessed as weed cover at 0.33 kg a.i/ha after 2 weeks (reference value: 63.5 +/- 0.29 %); assay type: functional
Euphorbia heterophylla [35] = assay: Herbicidal activity against Euphorbia heterophylla in Corchorus olitorius plots assessed as major weed growth at 0.66 kg a.i/ha after 2 weeks; assay type: functional
Chromolaena odorata [36] = assay: Herbicidal activity against Chromolaena odorata in Corchorus olitorius plots assessed as weed recovery at 0.33 kg a.i/ha after 2 weeks (reference value: 78.3 +/- 0.74 %); assay type: functional
Euphorbia heterophylla [37] = assay: Herbicidal activity against Euphorbia heterophylla in Corchorus olitorius plots assessed as weed cover at 0.33 kg a.i/ha after 2 weeks (reference value: 81.7 +/- 0.43 %); assay type: functional

Q: Which Activity (Chromolaena odorata [1]) does the source give for `CCC(CC)Nc1c([N+](=O)[O-])cc(C)c(C)c1[N+](=O)[O-]` [PENDIMETHALIN] here?
A: 31 /m2

Q: And the Activity (Corchorus olitorius [2])?
A: 41.7%

Q: And the Activity (Synedrella nodiflora [3])?
A: 1 /m2

Q: What about the Activity (Euphorbia heterophylla [4]) of the same compound?
A: 39.2%

Q: And the Activity (Cyperus rotundus [5])?
A: 90%

Q: What about the Activity (Corchorus olitorius [6]) of the same compound?
A: 31.7%

Q: What about the Activity (Calopogonium mucunoides [7]) of the same compound?
A: 31 /m2

Q: What about the Activity (Euphorbia heterophylla [8]) of the same compound?
A: 90%

Q: And the Activity (Synedrella nodiflora [9])?
A: 95%

Q: What about the Activity (Euphorbia heterophylla [10]) of the same compound?
A: 13.3%

Q: And the Activity (Corchorus olitorius [11])?
A: 76.7%

Q: And the Activity (Corchorus olitorius [12])?
A: 46.7%

Q: And the Activity (Calopogonium mucunoides [13])?
A: 1 /m2

Q: What about the Activity (Cyperus rotundus [14]) of the same compound?
A: 50.8%

Q: What about the Activity (Chromolaena odorata [15]) of the same compound?
A: 100%

Q: What about the Activity (Calopogonium mucunoides [16]) of the same compound?
A: 100%

Q: What about the Activity (Calopogonium mucunoides [17]) of the same compound?
A: 31 /m2

Q: What about the Activity (Chromolaena odorata [18]) of the same compound?
A: 63.3%

Q: What about the Activity (Synedrella nodiflora [19]) of the same compound?
A: 31 /m2

Q: And the Activity (Euphorbia heterophylla [20])?
A: 56.8%

Q: And the Activity (Corchorus olitorius [21])?
A: 66.7%

Q: And the Activity (Calopogonium mucunoides [22])?
A: 31.7%

Q: What about the Activity (Abelmoschus esculentus [23]) of the same compound?
A: 1.1 mm

Q: And the Activity (Chromolaena odorata [24])?
A: 1 /m2

Q: And the Activity (Calopogonium mucunoides [25])?
A: 53.8%

Q: What about the Activity (Commelina diffusa) of the same compound?
A: 90%

Q: And the Activity (Ageratum conyzoides [26])?
A: 39.2%

Q: What about the Activity (Calopogonium mucunoides [27]) of the same compound?
A: 51.7%

Q: And the Activity (Calopogonium mucunoides [28])?
A: 31 /m2

Q: What about the Activity (Ageratum conyzoides [29]) of the same compound?
A: 41.7%

Q: What about the Activity (Corchorus olitorius [30]) of the same compound?
A: 16.4 mm

Q: And the Activity (Synedrella nodiflora [31])?
A: 47.9%

Q: And the Activity (Abelmoschus esculentus [32])?
A: 47.9%

Q: What about the Activity (Ageratum conyzoides [33]) of the same compound?
A: 1 /m2

Q: And the Activity (Calopogonium mucunoides [34])?
A: 56.8%

Q: And the Activity (Euphorbia heterophylla [35])?
A: 31 /m2

Q: And the Activity (Chromolaena odorata [36])?
A: 31.7%

Q: What about the Activity (Euphorbia heterophylla [37]) of the same compound?
A: 63.3%
